{"source": "ChEMBL document CHEMBL4765323", "about": "“Design, synthesis, and biological evaluation of novel miconazole analogues containing selenium as potent antifungal agents” (Eur J Med Chem, 2020)", "key": {"Candida albicans [1]": {"tested_on": "Candida albicans", "assay": "Antifungal activity against fluconazole-resistant Candida albicans strain 904 measured after 24 hrs by micro-broth dilution assay", "format": "functional"}, "Pichia kudriavzevii": {"tested_on": "Pichia kudriavzevii", "assay": "Antifungal activity against Candida krusei AS 2.1045 measured after 24 hrs by micro-broth dilution assay", "format": "functional"}, "Candida albicans [2]": {"tested_on": "Candida albicans", "assay": "Antibiofilm activity against FCZ-Resistant Candida albicans CPCC400616 assessed as sessile minimum inhibitory concentration of biofilm formation at 80% after 24 hrs by XTT assay", "format": "functional"}, "Aspergillus fumigatus": {"tested_on": "Aspergillus fumigatus", "assay": "Antifungal activity against Aspergillus fumigatus CGMCC 3.7795 measured after 72 hrs by micro-broth dilution assay", "format": "functional"}, "Candida albicans [3]": {"tested_on": "Candida albicans", "assay": "Antibiofilm activity against FCZ-Resistant Candida albicans CPCC400616 assessed as sessile minimum inhibitory concentration of biofilm formation at 80% after 3 hrs by XTT assay", "format": "functional"}, "[4]": {"assay": "Ratio of MFC for fungicidal activity against Candida albicans CPCC400616 to MIC for Antifungal activity against Candida albicans CPCC400616", "format": "functional", "details": "time 24 hrs"}, "Candida albicans [5]": {"tested_on": "Candida albicans", "assay": "Antibiofilm activity against FCZ-Resistant Candida albicans CPCC400616 assessed as sessile minimum inhibitory concentration of biofilm formation at 50% after 6 hrs by XTT assay", "format": "functional"}, "Candida albicans [6]": {"tested_on": "Candida albicans", "assay": "Antibiofilm activity against FCZ-Resistant Candida albicans CPCC400616 assessed as sessile minimum inhibitory concentration of biofilm formation at 50% after 3 hrs by XTT assay", "format": "functional"}, "Candida albicans [7]": {"tested_on": "Candida albicans", "assay": "Antibiofilm activity against FCZ-Resistant Candida albicans CPCC400616 assessed as sessile minimum inhibitory concentration of biofilm formation at 50% after 24 hrs by XTT assay", "format": "functional"}, "Candida albicans [8]": {"tested_on": "Candida albicans", "assay": "Antifungal activity against Candida albicans 901 measured after 24 hrs by micro-broth dilution assay", "format": "functional"}, "Candida albicans [9]": {"tested_on": "Candida albicans", "assay": "Antifungal activity against fluconazole-resistant Candida albicans 632 measured after 24 hrs by micro-broth dilution assay", "format": "functional"}, "Candida albicans [10]": {"tested_on": "Candida albicans", "assay": "Antifungal activity against fluconazole-resistant Candida albicans 17 measured after 24 hrs by micro-broth dilution assay", "format": "functional"}, "[Candida] zeylanoides": {"tested_on": "[Candida] zeylanoides", "assay": "Antifungal activity against Candida zeylanoides CMGCC2.3739 measured after 24 hrs by micro-broth dilution assay", "format": "functional", "details": "Dujonia zeylanoides"}, "Candida albicans [11]": {"tested_on": "Candida albicans", "assay": "Antifungal activity against Candida albicans ATCC SC5314 measured after 24 hrs by micro-broth dilution assay", "format": "functional"}, "Candida albicans [12]": {"tested_on": "Candida albicans", "assay": "Antibiofilm activity against FCZ-Resistant Candida albicans CPCC400616 assessed as sessile minimum inhibitory concentration of biofilm formation at 80% after 1.5 hrs by XTT assay", "format": "functional"}, "Candida albicans [13]": {"tested_on": "Candida albicans", "assay": "Fungicidal activity against Candida albicans CPCC400616 measured after 48 hrs", "format": "functional"}, "Candida albicans [14]": {"tested_on": "Candida albicans", "assay": "Antibiofilm activity against FCZ-Resistant Candida albicans CPCC400616 assessed as sessile minimum inhibitory concentration of biofilm formation at 50% after 1.5 hrs by XTT assay", "format": "functional"}, "Candida albicans [15]": {"tested_on": "Candida albicans", "assay": "Antibiofilm activity against FCZ-Resistant Candida albicans CPCC400616 assessed as sessile minimum inhibitory concentration of biofilm formation at 80% after 6 hrs by XTT assay", "format": "functional"}, "Candida albicans [16]": {"tested_on": "Candida albicans", "assay": "Antifungal activity against Candida albicans CPCC400616 measured after 24 hrs by micro-broth dilution assay", "format": "functional"}, "Candida albicans [17]": {"tested_on": "Candida albicans", "assay": "Antifungal activity against fluconazole-resistant Candida albicans CaR measured after 24 hrs by micro-broth dilution assay", "format": "functional"}, "Nakaseomyces glabratus": {"tested_on": "Nakaseomyces glabratus", "assay": "Antifungal activity against clinical isolate Candida glabrata measured after 24 hrs by micro-broth dilution assay", "format": "functional"}, "[18]": {"assay": "Ratio of hemolysis activity in rabbit RBC to MIC for Candida albicans", "format": "toxicity", "details": "rabbit red blood cells (RBC)"}, "Candida parapsilosis": {"tested_on": "Candida parapsilosis", "assay": "Antifungal activity against Candida parapsilosis ATCC 22019 measured after 24 hrs by micro-broth dilution assay", "format": "functional", "details": "Lodderomyces parapsilosis"}, "Erythrocyte": {"tested_on": "Erythrocyte", "assay": "Hemolytic activity in rabbit RBC assessed as hemolysis ratio at 1 ug/ml measured after 3 hrs relative to control", "format": "ADME, cell-based, Oryctolagus cuniculus", "details": "dose 1 µg/ml"}, "Cryptococcus neoformans": {"tested_on": "Cryptococcus neoformans", "assay": "Antifungal activity against Cryptococcus neoformans CGMCC2.3161 measured after 72 hrs by micro-broth dilution assay", "format": "functional"}}}
{"smiles": "Fc1ccc(Br)c(C[Se]C(Cn2ccnc2)c2ccc(Cl)cc2Cl)c1", "note": "(stereo not given)", "values": [{"measurement": "MIC", "setting": "Candida albicans [1]", "value": 0.13, "unit": "µg/mL"}, {"measurement": "MIC", "setting": "Pichia kudriavzevii", "value": 0.13, "unit": "µg/mL"}, {"measurement": "Activity", "setting": "Candida albicans [2]", "value": ">128", "unit": "µg/mL"}, {"measurement": "MIC", "setting": "Aspergillus fumigatus", "value": 0.5, "unit": "µg/mL"}, {"measurement": "Activity", "setting": "Candida albicans [3]", "value": 64, "unit": "µg/mL"}, {"measurement": "MFC/MIC ratio", "setting": "[4]", "value": 4}, {"measurement": "Activity", "setting": "Candida albicans [5]", "value": 8, "unit": "µg/mL"}, {"measurement": "Activity", "setting": "Candida albicans [6]", "value": 8, "unit": "µg/mL"}, {"measurement": "Activity", "setting": "Candida albicans [7]", "value": 128, "unit": "µg/mL"}, {"measurement": "MIC", "setting": "Candida albicans [8]", "value": 0.25, "unit": "µg/mL"}, {"measurement": "MIC", "setting": "Candida albicans [9]", "value": 0.13, "unit": "µg/mL"}, {"measurement": "MIC", "setting": "Candida albicans [10]", "value": 0.03, "unit": "µg/mL"}, {"measurement": "MIC", "setting": "[Candida] zeylanoides", "value": 0.5, "unit": "µg/mL"}, {"measurement": "MIC", "setting": "Candida albicans [11]", "value": 0.01, "unit": "µg/mL"}, {"measurement": "Activity", "setting": "Candida albicans [12]", "value": 8, "unit": "µg/mL"}, {"measurement": "MIC", "setting": "Candida albicans [13]", "value": 0.0625, "unit": "µg/mL"}, {"measurement": "Activity", "setting": "Candida albicans [14]", "value": 1, "unit": "µg/mL"}, {"measurement": "Activity", "setting": "Candida albicans [15]", "value": ">128", "unit": "µg/mL"}, {"measurement": "MIC", "setting": "Candida albicans [16]", "value": 0.02, "unit": "µg/mL"}, {"measurement": "MIC", "setting": "Candida albicans [17]", "value": 0.13, "unit": "µg/mL"}, {"measurement": "MIC", "setting": "Nakaseomyces glabratus", "value": 0.5, "unit": "µg/mL"}, {"measurement": "selectivity ratio", "setting": "[18]", "value": 256}, {"measurement": "MIC", "setting": "Candida parapsilosis", "value": 0.02, "unit": "µg/mL"}, {"measurement": "Activity", "setting": "Erythrocyte", "value": 0.49, "unit": "µg/mL"}, {"measurement": "MIC", "setting": "Cryptococcus neoformans", "value": 0.25, "unit": "µg/mL"}]}
